{"source": "patent US11168319B1", "about": "“Plant cell culture” (Inari Agriculture Technology, Inc., priority 2017, dated 2021)", "key": {"[1]": {"system": "maize B73 protoplasts", "conditions": "for Viability (%): 100 mM Ca; for protoplast viability: 288 hours, YPIM B- medium", "procedure": "(§1) Separate suspensions of maize B73 and A188 protoplasts (2×10^5 cells per milliliter) were prepared in YPIM B-liquid medium containing various combinations of the added salts calcium chloride, potassium ascorbate, and magnesium chloride or magnesium sulfate. One-half milliliter aliquots of the suspensions were dispensed into a 24-well microtiter plate in the arrangement shown in Table 2, which lists the concentrations of calcium chloride (“Ca”), potassium ascorbate (“A”), and magnesium chloride (“MgCl2”) or magnesium sulfate (“MgSO4”) in millimolar values.\n(§2) Viability was judged by Evans blue staining and visualization under a light microscope.\nSeparate suspensions of maize B73, winter wheat, soy, and strawberry protoplasts (2×10^5 cells per milliliter) were prepared in YPIM B-liquid medium containing calcium chloride at 0, 50, or 100 millimolar. One-half milliliter aliquots of the suspensions were dispensed into a 24-well microtiter plate.\nViability at day 8 of culture was judged by visualization under a light microscope.\nViability at day 13 was judged by Evans blue staining and visualization under a light microscope.\n(§3) Separate suspensions of maize B73 protoplasts (2×10^5 cells per milliliter) were prepared in PIM B-liquid medium (identical to YPIM B-medium except with the 6-benzylaminopurine substituted with 0.022 milligrams/L thidiazuron) containing calcium chloride added at 0, 5, 20, 40, 70, or 100 millimolar. One-half milliliter aliquots of the suspensions were dispensed into a 24-well microtiter plate.\nViability was judged by visualization under a light microscope at day 7 and at day 14 of culture.\nas §3, with “B73 and A188” for “B73”, “0” for “0, 5, 20, 40, 70,”, “50” for “100”\n(§4) Viability was judged by visualization under a light microscope.\n(§5) Separate suspensions of maize B73 and A188 protoplasts (2×10^5 cells per milliliter) were prepared in YPIM B-liquid medium containing (a) calcium chloride added at 100 millimolar, or (b) 1 millimolar glutathione, or (c) no added calcium or glutathione. One-milliliter aliquots of the suspensions were dispensed into a 24-well microtiter plate. At 16, 40, 64, and 136 hours of culture, 50-microliter samples were taken for hemocytometer analysis from each well; for the plates containing maize A188 protoplasts, parallel 50-microliter samples were taken from a replicate well at 16, 40, and 64 hours of culture for quantification using a Cellometer cell counter (Nexcelom Bioscience LLC, Lawrence, Mass.).\n(§6) Viability was determined by Evans blue staining and quantification using a hemocytometer. Under conditions with high concentrations of calcium, Evans blue can create precipitates that interfere with cell counting; to prevent this, 5 microliters of an EDTA solution was added to the samples from the wells containing 100 millimolar calcium chloride immediately prior to staining."}, "[2]": {"system": "soybean protoplasts", "assay": "Protoplast viability (Evans blue staining, light microscope)", "type": "cell-based"}, "[3]": {"system": "maize protoplasts (A188, B73, B104, HiIIA, HiIIB)", "assay": "Protoplast viability by light microscope, five maize germplasm lines", "type": "cell-based", "conditions": "34 hours, across the five maize lines", "text": "as §4"}, "[4]": {"system": "maize A188 protoplasts", "assay": "Signs of cell division by microscopy under 5% or 21% oxygen", "type": "cell-based", "conditions": "day 8, 100 millimolar Ca^2+ in YPIM B-, 5% oxygen vs 21% oxygen by volume", "procedure": "(§7) Cell division was monitored, e.g., by microscopic observations. […] Evidence of cell division was observed by microscopy and included increased cell or protoplast size, bulging membranes, and large groups of organelles occupying the separating daughter cells. Quantification of cell division was carried out using fluorescent staining. Cells were treated with the thymidine analogue 5-ethynyl-2′-deoxyuridine (EdU), which is incorporated into DNA during S-phase and can be fluorescently activated using a fluorochrome that has been conjugated to an azide molecule. Cells that are the result of cellular division in the presence of EdU were identified by the resulting green fluorescent signal, which can be quantified by various means, e.g., with a microplate reader, cell counter, or cell sorter.\nIn one experiment, maize A188 protoplasts were grown under either 5% or 21% oxygen by volume in YPIM B-liquid medium containing 100 millimolar Ca^2+."}, "[5]": {"system": "maize HiIIA protoplasts", "assay": "Cell division rate by EdU staining (% EdU)", "type": "cell-based", "conditions": "100 mM Ca^2+", "procedure": "as §7\nIn a separate experiment, maize HiIIA protoplasts were grown in 24-well plates using YPIM B-liquid medium containing 100 millimolar Ca^2+ and 20 micromolar EdU. Identical plates were incubated under hypoxia (5% oxygen by volume, 26 degrees Celsius, 80% relative humidity) or ambient oxygen (21% oxygen by volume, 26 degrees Celsius, 80% relative humidity). Entire wells (250 microliters) were taken for EdU detection at four time points. The contents of each well was centrifuged and the pellet subjected to the Click-iT™ EdU Alexa Fluor™ 488 Imaging Kit (catalogue number C10337, Thermo Fisher Scientific, Waltham, Mass.) fluorescent labelling protocol. The labelled protoplasts were resuspended in YPIM B-medium and samples analyzed on a Nexcelom Cellometer (Nexcelom Bioscience LLC, Lawrence, Mass.). This assay was developed to detect the EdU signal from the nucleus of a cell resulting from cell division, as well as the fluorescent signal from chloroplasts as a measure of total cell count. Results are provided in Table 4 as a percentage of cells displaying the EdU signal relative to the total cell count (“% EdU”)."}, "[6]": {"system": "maize A188 protoplasts", "assay": "Protoplast viability (Evans blue staining / light microscope / hemocytometer)", "type": "cell-based", "conditions": "for Viability (%): 100 mM Ca; for viability / appearance: 50 millimolar; for protoplast viability: 288 hours, YPIM B- medium", "procedure": "as §1, §2\nSeparate suspensions of maize A188 protoplasts (2×10^5 cells per milliliter) were prepared in YPIM B-liquid medium containing calcium chloride at 0 or 50 millimolar. One-half milliliter aliquots of the suspensions were dispensed into a 24-well microtiter plate.\nas §4\nas §3, with “B73 and A188” for “B73”, “0” for “0, 5, 20, 40, 70,”, “50” for “100”\nas §5, §6"}, "[7]": {"system": "winter wheat, soy, and strawberry protoplasts", "assay": "Protoplast viability by light microscope, other species", "type": "cell-based", "conditions": "day 8, 0, 50 or 100 millimolar calcium"}, "[8]": {"conditions": "day 13, 50 millimolar calcium, Evans blue"}}, "note": "Where “and” joins values, the source holds several entries; their conditions need not be identical. Equal values may be shown once. Read-outs that look alike come from different tables or passages of the source."}
{"smiles": "[Ca+2].[Cl-].[Cl-]", "note": "[calcium chloride]", "values": [{"measurement": "Viability (%)", "setting": "[1]; 0 hours, hemocytometer", "value": 90, "unit": "%"}, {"measurement": "Viability (%)", "setting": "[1]; 16 hours", "value": 65, "unit": "%"}, {"measurement": "Viability (%)", "setting": "[1]; 40 hours", "value": 57, "unit": "%"}, {"measurement": "Viability (%)", "setting": "[1]; 64 hours", "value": 58, "unit": "%"}, {"measurement": "Viability (%)", "setting": "[1]; 136 hours", "value": 30, "unit": "%"}, {"measurement": "protoplast viability", "setting": "[1]; 50 mM added salt", "value": "almost all dead"}, {"measurement": "protoplast viability", "setting": "[1]; 100 mM added salt", "value": "10-20%"}, {"measurement": "viability and cell division", "setting": "[1]; PIM B- medium, 100 millimolar calcium", "value": "strongest enhanced viability and cell division"}, {"measurement": "viability", "setting": "[1]; day 6, PIM B- medium, 50 millimolar calcium", "value": "still contained viable cells"}, {"measurement": "viability and cell division", "setting": "[1]; day 7, PIM B- medium, 40, 70, or 100 millimolar calcium", "value": "formed clusters of viable, healthy cells with cell division occurring"}, {"measurement": "viability", "setting": "[1]; day 7, PIM B- medium, less than 40 millimolar calcium", "value": "dead"}, {"measurement": "viability", "setting": "[1]; day 8, 50 millimolar calcium, YPIM B-, light microscope", "value": 30, "unit": "%"}, {"measurement": "viability", "setting": "[1]; day 8, 100 millimolar calcium, YPIM B-, light microscope", "value": 80, "unit": "%"}, {"measurement": "viability", "setting": "[1]; [8]", "value": 0, "unit": "%"}, {"measurement": "viability of the maize protoplasts (second statement in the sentence)", "setting": "[1]; [8]", "value": 50, "unit": "%"}, {"measurement": "viability", "setting": "[1]; day 13, 100 millimolar calcium, Evans blue", "value": 10, "unit": "%"}, {"measurement": "viability", "setting": "[2]; day 13, 50 millimolar calcium", "value": 50, "unit": "%"}, {"measurement": "viability", "setting": "[2]; day 13, 100 millimolar calcium", "value": 50, "unit": "%"}, {"measurement": "viability", "setting": "[3]; 50 millimolar calcium", "value": "about 55%"}, {"measurement": "viability", "setting": "[3]; 100 millimolar calcium", "value": "about 70%"}, {"measurement": "signs of cell division", "setting": "[4]", "value": "many more protoplasts displaying signs of cell division"}, {"measurement": "% EdU", "setting": "[5]; 5% oxygen by volume, 93 hours", "value": 12, "unit": "%"}, {"measurement": "% EdU", "setting": "[5]; 5% oxygen by volume, 117 hours", "value": 19, "unit": "%"}, {"measurement": "% EdU", "setting": "[5]; 5% oxygen by volume, 165 hours, listed as Ca^2+", "value": "19% and 15%"}, {"measurement": "% EdU", "setting": "[5]; 21% oxygen by volume, 93 hours", "value": 6.5, "unit": "%"}, {"measurement": "% EdU", "setting": "[5]; 21% oxygen by volume, 117 hours, listed as Ca^2+", "value": "6.9% and 8.0%"}, {"measurement": "% EdU", "setting": "[5]; 21% oxygen by volume, 141 hours, listed as Ca^2+", "value": "13% and 4.8%"}, {"measurement": "% EdU", "setting": "[5]; 21% oxygen by volume, 165 hours, listed as Ca^2+", "value": "5.0% and 0.0%"}, {"measurement": "Viability (%)", "setting": "[6]; 0 hours, hemocytometer", "value": 90, "unit": "%"}, {"measurement": "Viability (%)", "setting": "[6]; 16 hours", "value": 67, "unit": "%"}, {"measurement": "Viability (%)", "setting": "[6]; 40 hours", "value": 57, "unit": "%"}, {"measurement": "Viability (%)", "setting": "[6]; 64 hours", "value": 59, "unit": "%"}, {"measurement": "Viability (%)", "setting": "[6]; 136 hours", "value": 46, "unit": "%"}, {"measurement": "viability / appearance", "setting": "[6]; 96 hours, vs no added calcium", "value": "appeared healthier"}, {"measurement": "viability / appearance", "setting": "[6]; 168 hours (7 days)", "value": "very many large, healthy-looking protoplasts"}, {"measurement": "protoplast viability", "setting": "[6]; 50 mM added salt", "value": "about 20%"}, {"measurement": "protoplast viability", "setting": "[6]; 100 mM added salt", "value": "about 70%"}, {"measurement": "viability", "setting": "[6]; day 6, PIM B- medium, 50 millimolar calcium, several wells", "value": 100, "unit": "%"}, {"measurement": "cell wall regeneration and cell division", "setting": "[6]; day 20, 50 millimolar", "value": "had generated cell walls and undergone at least some cell division"}, {"measurement": "viability", "setting": "[7]", "value": "no large differences"}]}
